We go through two compounds from patent publication US11980633B2, “Method for treating cancer using a combination of DNA-damaging agents and DNA-PK inhibitors” (Vertex Pharmaceuticals Incorporated, priority 2016, dated 2024).

Format in all cases: cell-based
The test system of assay [1] is primary human tumors (NSCLC, SCLC). The assay is described as follows: TCA: Compound B-1 with etoposide, primary lung tumors. Here is the method: (§1) In both studies, cell viability was assessed after 6 days in culture. Statistical analysis of the combination matrix was performed to assess whether synergy, additivity, or antagonism of the combination treatments were observed.
(§2) Materials: Primary patient samples (See Tables 16 and 17, below) were excised from mice when they reached 500 mg to 1000 mg in size and processed immediately, or after overnight shipment. Tumors were serially passaged by subcutaneous implantation of 50 mg to 150 mg fragments into the flanks of immunocompromised (nude) mice. Tumors were used within the first 5 or 7 passages.
(§3) Tumor Chemosensitivity Assay (TCA): Primary tumor samples were grown and serially passaged in immunocompromised mice. Tumors were mechanically dissociated into small fragments (1 mm to 2 mm) with scalpels in phosphate buffered saline (PBS or RPMI) and centrifuged at 200×g for 5 minutes at room temperature in 50 mL centrifuge tubes. Samples were resuspended in 10 mL of cell dissociation reagent and enzymatically digested with mechanical agitation for 1 to 3 hours at 37° C., 5% CO2 to a single cell suspension. Ten mL of complete RPMI-1640 media was added to the cell mixture and pipetted up and down 4 to 5 times. The mixture was then passed through a 70 μm or 100 μm mesh strainer to remove undigested tumor. The filtrate was then centrifuged 200×g for 5 minutes at room temperature and resuspended in 20 mL complete RPMI-1640. This cell suspension was slowly layered onto 20 mL of room temperature Histopaque and centrifuged at 400×g for 15 minutes at room temperature without a brake. The interface was transferred to a new 50 mL centrifuge tube and 15 mL of complete RPMI-1640 was added. This suspension was centrifuged at 200×g at room temperature, and the resulting pellet was resuspended in 10 mL of complete PC-1 media, except for pancreatic tumors in which case Pancreatic Medium was used. Cells were diluted in Trypan blue, and viable cells that excluded the dye were counted. Only the larger, tumor cells were included in the cell count. Cells were diluted in complete PC-1 or Pancreatic media, as appropriate for the cells, and were plated at 15,000 to 20,000 cells per well in 100-135 μL in ultra-low attachment U-bottom plates.
(§4) Compound Addition: For these studies, a 10 mM stock of the DNA-PK inhibitor (Compound B-1 or Compound B-2) was made in DMSO and used to add to cells from most tumors with HP D300 Digital Dispenser (Tecan US, Morrisville, NC, USA), or diluted into the appropriate media (PC-1 or pancreatic media) as a 5-10× stock and added to cells (OVX001 and ENX001, 005). PC-1, pancreatic media, and chemotherapeutics were also added so that final well volume was 150 μL. Doxorubicin was made as DMSO stock of 1 or 10 mM and added to cells for most tumors with HP D300 Digital Dispenser, or diluted into PC-1 as 5-10× stock and added to cells (OVX001 and ENX001, 005). Cisplatin (cis-diammine platinum(II), dichloride) was prepared fresh to 10 mM in warm (60° C.) distilled water and diluted in PC-1 as a 5-10× stock. […] Different starting concentrations, dose ranges, and number of doses were used for each experiment based on the response data available at the time.
(§5) For bleomycin experiments, combinations with Compound B-1 at all concentrations were run in triplicate. A 6×3 matrix was designed on one plate, consisting of a 2-point concentration range of 0.73 μM and 2.2 μM Compound B-1 plus no treatment control, in 3 columns each of 6 wells. Bleomycin (plus ‘no treatment’ control) was added to 9 wells in rows of this plate. Similar 6×3 matrices were set up for additional agents with different starting concentrations for compound dilutions. For cisplatin experiments the starting concentration was 30 μM which was diluted 1:3. […] For doxorubicin hydrochloride experiments the starting concentration was 5 μM doxorubicin which was diluted 1:3. For gemcitabine experiments the starting concentration was 5 μM gemcitabine which was diluted 1:3. […]

Assay [2] relates to primary human pancreatic tumors. The assay is described as follows: TCA: Compound B-1 with gemcitabine, primary pancreatic tumors. Here is the method: as §1, §2, §3, §4, §5
In assay [3] the test system is primary human tumors (esophageal, gastric). Briefly: TCA: Compound B-1 with carboplatin, primary tumors. Here is the method:
as §1, §2, §3, §4, §5

The test system of assay [4] is primary human endometrial tumors (dissociated cells). Briefly: Tumor Chemosensitivity Assay (TCA): Compound B-2 with doxorubicin, primary endometrial tumors, viability after 6 days, Bliss. Here is the method: Specifically, one study described the combination of Compound B-2 and doxorubicin hydrochloride. In this study, a panel of primary human ovarian and endometrial tumors was dissociated and treated with Compound B-2 to determine the effectiveness of this selective DNA-PK inhibitor to enhance the activity of doxorubicin.
as §1, §2
Tumor Chemosensitivity Assay (TCA): Primary tumor samples were grown and serially passaged in immunocompromised mice. Tumors were mechanically dissociated into small fragments (1 mm to 2 mm) with scalpels in phosphate buffered saline (PBS or RPMI) and centrifuged at 200×g for 5 minutes at room temperature in 50 mL centrifuge tubes. […] Cells were diluted in Trypan blue, and viable cells that excluded the dye were counted. […]

Regarding `CNC(=O)c1ccnc2c([C@H](C)CNc3cc(-c4cnc(C)nc4)ncn3)cccc12` [Compound B-1], the “tumors that showed strong synergy” value in assay [1] was 100%. The “Average Bliss score” value in assay [1] (tumor LUX013, Lung (SCLC)) is given as 15; in assay [1] (tumor LUX031, Lung (SCLC)) it was 16; in assay [1] (tumor OD26749, Lung (NSCLC)), 19; in assay [1] (tumor OD29498, Lung (NSCLC)), 13; in assay [2] (tumor P110325, Pancreatic), −9; in assay [2] (tumor P110413, Pancreatic), −1. The “Average Bliss score” value is reported as −6 in assay [2] (tumor P110504, Pancreatic); −2 in assay [2] (tumor P110603, Pancreatic); 3 in assay [3] (tumor ESX005, Esophageal); 5 in assay [3] (tumor ESX008, Esophageal); 2 in assay [3] (tumor GAX001, Gastric); 4 in assay [3] (tumor GAX007, Gastric). The “Average Bliss score” value in assay [3] (tumor GAX027, Gastric) is given as 4. Also, the Synergy/Additivity/Antagonism result is “Strongly Synergistic (greater than 10 are considered strongly synergistic)” in assay [1] (tumor LUX013, Lung (SCLC)); “Strongly Synergistic (greater than 10 are considered strongly synergistic)” in assay [1] (tumor LUX031, Lung (SCLC)); “Strongly Synergistic (greater than 10 are considered strongly synergistic)” in assay [1] (tumor OD26749, Lung (NSCLC)); “Strongly Synergistic (greater than 10 are considered strongly synergistic)” in assay [1] (tumor OD29498, Lung (NSCLC)); “Antagonistic (less than −5 are considered antagonistic)” in assay [2] (tumor P110325, Pancreatic); “Additive (Values between 5 and −5 are considered additive)” in assay [2] (tumor P110413, Pancreatic). In addition, the Synergy/Additivity/Antagonism result in assay [2] (tumor P110504, Pancreatic) was “Antagonistic (less than −5 are considered antagonistic)”; in assay [2] (tumor P110603, Pancreatic), “Additive (Values between 5 and −5 are considered additive)”; in assay [3] (tumor ESX005, Esophageal), “Additive (Values between 5 and −5 are considered additive)”; in assay [3] (tumor ESX008, Esophageal), “Synergistic (greater than 5 are considered synergistic)”; in assay [3] (tumor GAX001, Gastric), “Additive (Values between 5 and −5 are considered additive)”; in assay [3] (tumor GAX007, Gastric), “Additive (Values between 5 and −5 are considered additive)”. The Synergy/Additivity/Antagonism entry in assay [3] (tumor GAX027, Gastric) was “Additive (Values between 5 and −5 are considered additive)”. The “tumors that showed additivity” value in assay [2] (2 of 4 pancreatic tumors) is reported as 50%. In addition, in assay [2] (2 of 4 pancreatic tumors), the “tumors that showed antagonism” value is on record as 50%. The “tumors that showed synergy or additivity” value in assay [3] (5 tumors) is 100%.
As for `[2H]c1nc(C)nc([2H])c1-c1cc(NC[C@@H](C)c2cccc3c(C(=O)NC)ccnc23)ncn1` [Compound B-2], the “Average Bliss score” value in assay [4] (tumor ENX001 (Endometrial)) was 6; in assay [4] (tumor ENX005 (Endometrial)), 21.
